Experiments:
lipoamide = compound: NC(=O)CCCCC1CCSS1 [lipoamide]; assay: thermal stability z-score vs DMSO; higher = more thermally stabilized by treatment; settings: HeLa, lipoamide concentration 100 µM
Method: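 Cellular thermal proteome profiling in HeLa cells. Cells were treated with 100 µM lipoamide for 1 h, with or without 1 mM arsenate for a further 1 h, then heated to ten temperatures (37-66.3 °C), and soluble protein was quantified by TMT mass spectrometry relative to 0.1% DMSO controls. The thermal stability score (sum of log2 fold changes minus the abundance score) was transformed to a z-score; mean of n = 3 experiments.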

potassium arsenate = compound: O=[As]([O-])(O)O.[K+] [potassium arsenate]; assay: as above; settings: HeLa; arsenate concentration 1 mM
Method: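 Cellular thermal proteome profiling in HeLa cells treated with 1 mM arsenate for 1 h (DMSO pretreatment), heated to ten temperatures (37-66.3 °C). Soluble protein was quantified by TMT mass spectrometry relative to DMSO controls; the thermal stability score was transformed to a z-score; mean of n = 3 experiments.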

[1] = arsenate co-treatment: 1 mM arsenate 1 h
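Also: each temperature applied for 3 min, abundance score taken as mean log2 fold change at the two lowest temperatures, z-score obtained by mean subtraction and division by SD.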

UniProt P61006, sequence (P61006 whole entry): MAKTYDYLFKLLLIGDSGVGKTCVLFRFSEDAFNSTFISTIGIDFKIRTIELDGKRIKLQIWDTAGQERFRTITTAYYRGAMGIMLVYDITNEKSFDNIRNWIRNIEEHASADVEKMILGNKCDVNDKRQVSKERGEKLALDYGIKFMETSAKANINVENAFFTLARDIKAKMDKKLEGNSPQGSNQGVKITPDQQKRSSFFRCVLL
UniProt Q7Z569, sequence (Q7Z569 whole entry): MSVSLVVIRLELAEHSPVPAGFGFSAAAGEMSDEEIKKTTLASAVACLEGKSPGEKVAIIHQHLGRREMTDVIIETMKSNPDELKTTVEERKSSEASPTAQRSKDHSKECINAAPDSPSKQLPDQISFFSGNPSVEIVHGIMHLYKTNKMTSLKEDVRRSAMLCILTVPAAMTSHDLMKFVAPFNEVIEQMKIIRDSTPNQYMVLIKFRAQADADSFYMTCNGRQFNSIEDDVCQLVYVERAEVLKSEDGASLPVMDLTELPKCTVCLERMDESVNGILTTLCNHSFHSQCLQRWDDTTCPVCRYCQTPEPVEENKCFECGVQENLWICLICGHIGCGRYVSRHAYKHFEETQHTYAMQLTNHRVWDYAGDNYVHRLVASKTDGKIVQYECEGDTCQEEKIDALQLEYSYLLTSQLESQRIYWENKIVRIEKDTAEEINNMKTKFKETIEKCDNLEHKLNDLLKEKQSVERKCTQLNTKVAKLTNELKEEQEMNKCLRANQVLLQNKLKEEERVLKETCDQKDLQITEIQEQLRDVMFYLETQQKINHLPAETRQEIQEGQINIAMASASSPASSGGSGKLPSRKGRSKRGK
UniProt Q8IWX8, sequence (Q8IWX8 whole entry): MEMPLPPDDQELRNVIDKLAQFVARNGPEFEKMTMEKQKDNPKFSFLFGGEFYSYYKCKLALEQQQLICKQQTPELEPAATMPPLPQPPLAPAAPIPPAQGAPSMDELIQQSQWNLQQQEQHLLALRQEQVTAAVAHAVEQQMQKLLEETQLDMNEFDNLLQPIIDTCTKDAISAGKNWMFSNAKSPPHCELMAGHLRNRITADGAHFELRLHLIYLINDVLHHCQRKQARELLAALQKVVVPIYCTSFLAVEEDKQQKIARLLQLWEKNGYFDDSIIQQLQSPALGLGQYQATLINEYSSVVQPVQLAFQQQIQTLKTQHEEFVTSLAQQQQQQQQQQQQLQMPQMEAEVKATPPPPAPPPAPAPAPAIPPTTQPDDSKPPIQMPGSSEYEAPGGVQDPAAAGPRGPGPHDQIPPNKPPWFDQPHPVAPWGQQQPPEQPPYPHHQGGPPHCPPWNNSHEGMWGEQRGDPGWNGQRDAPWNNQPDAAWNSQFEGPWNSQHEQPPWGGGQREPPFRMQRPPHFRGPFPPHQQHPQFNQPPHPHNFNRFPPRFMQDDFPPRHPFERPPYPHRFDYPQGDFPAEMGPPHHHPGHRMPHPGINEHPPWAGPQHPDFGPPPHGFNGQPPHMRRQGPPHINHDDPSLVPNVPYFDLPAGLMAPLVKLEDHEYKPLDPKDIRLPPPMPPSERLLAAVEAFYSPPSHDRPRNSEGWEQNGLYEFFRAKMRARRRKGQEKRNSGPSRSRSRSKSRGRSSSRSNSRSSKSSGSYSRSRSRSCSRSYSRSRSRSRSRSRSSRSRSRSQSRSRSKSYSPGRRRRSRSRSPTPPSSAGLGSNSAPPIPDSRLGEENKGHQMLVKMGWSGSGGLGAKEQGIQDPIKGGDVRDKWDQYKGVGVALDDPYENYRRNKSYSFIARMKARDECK
UniProt Q13232, sequence (Q13232 whole entry): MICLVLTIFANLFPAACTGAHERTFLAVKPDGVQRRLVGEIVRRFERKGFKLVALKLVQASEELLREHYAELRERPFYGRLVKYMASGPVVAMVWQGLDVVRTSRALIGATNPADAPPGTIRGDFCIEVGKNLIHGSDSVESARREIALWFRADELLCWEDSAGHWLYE
UniProt Q9GZY4, sequence (Q9GZY4 whole entry): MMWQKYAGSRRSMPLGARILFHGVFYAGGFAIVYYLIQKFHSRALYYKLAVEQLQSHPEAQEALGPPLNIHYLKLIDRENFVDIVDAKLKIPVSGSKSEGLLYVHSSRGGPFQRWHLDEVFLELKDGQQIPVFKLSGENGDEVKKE
UniProt Q9NZ52, sequence (Q9NZ52 whole entry): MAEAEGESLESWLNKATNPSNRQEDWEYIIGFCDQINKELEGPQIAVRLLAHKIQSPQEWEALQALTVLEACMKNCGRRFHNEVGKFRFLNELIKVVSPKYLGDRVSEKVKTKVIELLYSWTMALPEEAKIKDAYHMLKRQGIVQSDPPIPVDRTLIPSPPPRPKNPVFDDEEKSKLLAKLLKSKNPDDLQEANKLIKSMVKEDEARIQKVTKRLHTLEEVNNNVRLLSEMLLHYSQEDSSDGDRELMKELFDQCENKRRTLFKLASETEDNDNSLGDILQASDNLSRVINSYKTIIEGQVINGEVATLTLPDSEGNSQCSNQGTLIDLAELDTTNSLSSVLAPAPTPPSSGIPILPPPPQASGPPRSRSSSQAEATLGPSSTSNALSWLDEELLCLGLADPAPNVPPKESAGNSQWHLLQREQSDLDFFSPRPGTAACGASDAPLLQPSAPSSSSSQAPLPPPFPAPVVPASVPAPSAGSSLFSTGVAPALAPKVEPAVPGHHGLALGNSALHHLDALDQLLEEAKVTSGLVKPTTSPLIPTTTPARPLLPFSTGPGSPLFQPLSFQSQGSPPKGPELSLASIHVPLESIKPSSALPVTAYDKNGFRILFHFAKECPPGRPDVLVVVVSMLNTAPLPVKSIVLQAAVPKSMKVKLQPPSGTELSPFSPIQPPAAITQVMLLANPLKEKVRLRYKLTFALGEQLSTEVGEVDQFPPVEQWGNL
UniProt Q8WUX1, sequence (Q8WUX1 whole entry): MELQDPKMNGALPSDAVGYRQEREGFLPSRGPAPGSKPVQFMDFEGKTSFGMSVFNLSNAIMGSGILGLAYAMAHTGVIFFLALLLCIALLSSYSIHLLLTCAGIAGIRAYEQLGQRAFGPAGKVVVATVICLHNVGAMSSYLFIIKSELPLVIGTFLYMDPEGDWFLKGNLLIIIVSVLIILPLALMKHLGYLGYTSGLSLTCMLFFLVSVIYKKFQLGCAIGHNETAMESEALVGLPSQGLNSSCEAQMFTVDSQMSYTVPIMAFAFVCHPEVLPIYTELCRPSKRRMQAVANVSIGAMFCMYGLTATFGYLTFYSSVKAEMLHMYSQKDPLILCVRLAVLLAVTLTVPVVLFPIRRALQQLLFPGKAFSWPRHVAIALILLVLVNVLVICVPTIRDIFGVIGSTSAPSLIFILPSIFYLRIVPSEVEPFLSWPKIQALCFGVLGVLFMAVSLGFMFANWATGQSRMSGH
UniProt Q96RD7, sequence (Q96RD7 whole entry): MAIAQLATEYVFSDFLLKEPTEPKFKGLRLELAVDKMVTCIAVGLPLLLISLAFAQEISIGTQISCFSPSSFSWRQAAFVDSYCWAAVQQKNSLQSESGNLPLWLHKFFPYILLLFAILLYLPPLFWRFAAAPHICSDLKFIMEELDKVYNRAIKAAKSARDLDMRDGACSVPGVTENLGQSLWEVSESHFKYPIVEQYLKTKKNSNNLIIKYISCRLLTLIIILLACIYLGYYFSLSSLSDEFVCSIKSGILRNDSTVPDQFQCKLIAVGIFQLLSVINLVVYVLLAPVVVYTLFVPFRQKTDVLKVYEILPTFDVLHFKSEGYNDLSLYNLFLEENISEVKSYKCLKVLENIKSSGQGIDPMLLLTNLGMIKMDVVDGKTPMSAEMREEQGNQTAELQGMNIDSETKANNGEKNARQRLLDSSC
UniProt Q969S9, sequence (Q969S9 whole entry): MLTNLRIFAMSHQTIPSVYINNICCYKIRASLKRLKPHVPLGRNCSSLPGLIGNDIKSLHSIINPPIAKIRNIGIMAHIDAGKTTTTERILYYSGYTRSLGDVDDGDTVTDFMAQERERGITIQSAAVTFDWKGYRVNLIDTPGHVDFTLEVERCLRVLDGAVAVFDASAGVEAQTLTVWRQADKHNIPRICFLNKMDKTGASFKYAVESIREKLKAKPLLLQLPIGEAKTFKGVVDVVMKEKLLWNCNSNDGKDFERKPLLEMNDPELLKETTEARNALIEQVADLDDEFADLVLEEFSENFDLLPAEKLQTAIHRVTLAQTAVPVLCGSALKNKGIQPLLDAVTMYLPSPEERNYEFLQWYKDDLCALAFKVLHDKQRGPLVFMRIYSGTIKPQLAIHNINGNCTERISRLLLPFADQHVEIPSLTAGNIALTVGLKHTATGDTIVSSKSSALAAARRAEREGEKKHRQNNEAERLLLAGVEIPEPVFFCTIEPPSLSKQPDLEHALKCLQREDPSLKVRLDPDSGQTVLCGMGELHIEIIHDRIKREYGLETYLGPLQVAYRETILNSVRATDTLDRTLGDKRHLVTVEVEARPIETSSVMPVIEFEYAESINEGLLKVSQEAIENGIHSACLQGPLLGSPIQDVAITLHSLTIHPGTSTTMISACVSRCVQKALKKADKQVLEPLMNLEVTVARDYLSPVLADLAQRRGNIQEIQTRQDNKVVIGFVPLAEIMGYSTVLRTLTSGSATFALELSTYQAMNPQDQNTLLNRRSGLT
UniProt Q96IU4, sequence (Q96IU4 whole entry): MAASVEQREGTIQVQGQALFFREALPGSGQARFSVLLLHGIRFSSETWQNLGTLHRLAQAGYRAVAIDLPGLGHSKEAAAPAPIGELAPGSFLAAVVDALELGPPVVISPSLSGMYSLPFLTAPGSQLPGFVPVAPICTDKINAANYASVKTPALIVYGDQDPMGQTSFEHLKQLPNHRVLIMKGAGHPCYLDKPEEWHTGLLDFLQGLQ
UniProt O00560, sequence (O00560 whole entry): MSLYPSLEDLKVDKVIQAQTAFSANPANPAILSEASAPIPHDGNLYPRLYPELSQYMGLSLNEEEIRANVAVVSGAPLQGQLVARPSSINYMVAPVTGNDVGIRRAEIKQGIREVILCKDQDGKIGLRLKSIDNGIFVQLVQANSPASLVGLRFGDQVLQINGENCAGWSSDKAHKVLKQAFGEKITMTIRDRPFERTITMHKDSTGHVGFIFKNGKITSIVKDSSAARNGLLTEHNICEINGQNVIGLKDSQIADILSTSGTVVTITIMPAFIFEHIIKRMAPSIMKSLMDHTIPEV

Row | Target | thermal stability z-score (lipoamide; [1]) | thermal stability z-score (lipoamide; arsenate co-treatment: none) | thermal stability z-score (potassium arsenate)
1 | NTPCR (UniProt Q9BSD7) | -0.0779 | -0.905 | -0.753
2 | GUK1 (UniProt Q16774) | 0.321 | 0.714 | 0.29
3 | CWF19L2 (UniProt Q2TBE0) | 0.0402 | -0.0633 | -0.098
4 | CHERP (UniProt Q8IWX8) | 0.00336 | 0.0908 | -0.107
5 | SDCBP (UniProt O00560) | 0.541 | 0.425 | 0.364
6 | SH2D4A (UniProt Q9H788) | 0.0871 | 0.021 | 0.112
7 | RRM2 (UniProt P31350) | 0.385 | 0.731 | 0.674
8 | LGALS3 (UniProt P17931) | 0.762 | 0.918 | -0.377
9 | VPS45 (UniProt Q9NRW7) | 0.546 | 0.434 | 0.0668
10 | STK17A (UniProt Q9UEE5) | -0.0669 | -0.0755 | 0.0862
11 | TMEM208 (UniProt Q9BTX3) | 0.0799 | -0.132 | -0.159
12 | NME3 (UniProt Q13232) | 0.0656 | 0.615 | 0.673
13 | MED12 (UniProt Q93074) | -0.255 | -0.248 | 0.0377
14 | PRMT6 (UniProt Q96LA8) | 0.257 | 0.412 | 0.483
15 | ABHD14B (UniProt Q96IU4) | 1.24 | 0.828 | 0.527
16 | RPAP2 (UniProt Q8IXW5) | -0.0831 | -0.0884 | -0.0605
17 | GFM2 (UniProt Q969S9) | 0.216 | 0.105 | 0.226
18 | MFN1 (UniProt Q8IWA4) | -0.522 | -0.191 | 0.157

Row | Target | thermal stability z-score (lipoamide; [1]) | thermal stability z-score (lipoamide; arsenate co-treatment: none) | thermal stability z-score (potassium arsenate)
19 | COA1 (UniProt Q9GZY4) | 0.229 | 0.587 | 0.234
20 | NOB1 (UniProt Q9ULX3) | -0.423 | -0.679 | -0.873
21 | TUBB3 (UniProt Q13509) | 0.871 | 0.131 | -0.447
22 | PMPCB (UniProt O75439) | 0.254 | 0.207 | 0.353
23 | PANX1 (UniProt Q96RD7) | 0.67 | 0.0977 | 0.123
24 | MCUR1 (UniProt Q96AQ8) | 0.853 | 1.15 | -0.0449
25 | SHCBP1 (UniProt Q8NEM2) | 0.0159 | 0.0645 | -0.451
26 | EYA4 (UniProt O95677) | 0.0211 | -0.116 | 0.168
27 | DOPEY2 (UniProt Q9Y3R5) | 1.01 | 0.402 | -0.9
28 | BRAP (UniProt Q7Z569) | -0.31 | 0.051 | 0.485
29 | NEK6 (UniProt Q9HC98) | -0.181 | -0.266 | -0.209
30 | RAB8A (UniProt P61006) | 0.0143 | 0.344 | 0.332
31 | RNF34 (UniProt Q969K3) | -0.0298 | 0.0211 | -0.392
32 | NUDT1 (UniProt P36639) | 0.505 | 0.0984 | -0.00492
33 | GGA3 (UniProt Q9NZ52) | -0.3 | 0.0568 | -0.298
34 | PSMD8 (UniProt P48556) | 0.814 | 0.532 | -0.197
35 | PTRH1 (UniProt Q86Y79) | 0.0851 | 0.0188 | -0.214
36 | SLC38A5 (UniProt Q8WUX1) | 0.333 | -0.181 | -0.311

From the supplement of paper PMC12463676, “Small-molecule dissolution of stress granules by redox modulation benefits ALS models” (Nature Chemical Biology, 2025)
